Assay [1] addresses T1, JNK1 (Homo sapiens, UniProt P45983). The experiment in a line: LanthaScreen TR-FRET in vitro kinase activity assay, JNK1 phosphorylation of ATF2. The conditions noted are these: for Kinase Activity Assay (JNK), ND class: Table 1, ND with footnote. It counts as biochemical. As to the method: LanthaScreen™ In vitro Kinase Assay. LanthaScreen™ assay platform from Invitrogen was utilized. The time-resolved fluorescence resonance energy transfer assay (TR-FRET) was performed in 384 well plates. Each well received JNK1 (100 ng/mL), ATF2 (200 nM), and ATP (1 μM) in 50 mM HEPES, 10 mM MgCl2, 1 mM EGTA and 0.01% Brij-35, pH 7.5 and test compounds. The kinase reaction was performed at room temperature for 1 hr. After this time, the terbium labeled antibody and EDTA were added into each well. After an additional hour incubation, the signal was measured at 520/495 nm emission ratio on a BMG Pherastar fluorescence plate reader.
For orientation: Time-resolved FRET reads energy transfer from a long-lived donor to a nearby acceptor.

In assay [2] the target is T1, JNK1. Briefly: DELFIA assay: displacement of biotinylated pepJIP1 (L-JIP1 peptide) from GST-JNK1. Format: binding. The settings on record: for Delfia Assay (Displacement of L-JIP1 peptide from JNK), ND class: Table 1, ND with footnote. As to the method: In order to define an optimal interacting docking peptide sequence for JNK, twenty peptide sequences were tested, which were derived from its putative substrates and scaffolding proteins, all presenting a D-domain consensus motif. Each peptide was tested for its ability to displace pepJIP1 (residues 153-164) from JNK1 by using a Dissociation Enhanced Lanthanide Fluoro-Immuno Assay (DELFIA) platform. DELFIA is a heterogeneous assay whereby a biotin-linked pepJIP1 is adsorbed onto a streptavidin-coated plate followed by incubation with GST-JNK1. Detection of the pepJIP1/GST-JNK1 complex is facilitated by a highly fluorescent anti-GST Eu-antibody conjugate (Perkin-Elmer).
DELFIA Assay (dissociation enhanced lanthanide fluoro-immuno assay). […] After 1 hr incubation and elimination of unbound biotin-pepJIP1 by 3 washing steps, 87 μL of Eu-labeled anti-GST antibody solution (300 ng/ml; 1.9 nM), 2.5 μL DMSO solution containing test compound, and 10 μL solution of GST-JNK1 for a final protein concentration of 10 nM was added. After 1 hr incubation at 0° C., each well was washed 5 times to eliminate unbound protein and the Eu-antibody if displaced by a test compound. Subsequently, 200 μL of enhancement solution (Perkin-Elmer) was added to each well and fluorescence measured after 10 min incubation (excitation wavelength, 340 nm; emission wavelength, 615 nm). Controls include unlabeled peptide and blanks receiving no compounds. Protein and peptide solutions were prepared in DELFIA buffer (Perkin-Elmer).

Assay [3] concerns the target p38α (Homo sapiens, UniProt Q16539). Briefly: LanthaScreen kinase activity assay with ATF2 substrate versus p38α. Format: biochemical. As to the method:
In order to confer further favorable pharmacological properties to this compound for in vivo studies, analogous to the clinical candidate D-JNK1^15, an all-D retro-inverso version of BI77B8 fused to the cell penetrating HIV-TAT sequence was prepared. […] LanthaScreen™ In vitro Kinase Assay. LanthaScreen™ assay platform from Invitrogen was utilized. The time-resolved fluorescence resonance energy transfer assay (TR-FRET) was performed in 384 well plates. […] After this time, the terbium labeled antibody and EDTA were added into each well. After an additional hour incubation, the signal was measured at 520/495 nm emission ratio on a BMG Pherastar fluorescence plate reader.

The mark [4] stands for this setting: Table 2, read-out: IC50 (μM), Kinase Assay.
Where [5] appears, read: Table 3, read-out: pepJIP Displacement IC50.
Where [6] appears, read: JNK1, ATF2 substrate, read-out: Kinase Inhibition IC50.
[7] abbreviates: Table 1, read-out: Delfia Assay (Displacement of L-JIP1 peptide from JNK) IC50.
[8] abbreviates: Table 1, read-out: Kinase Activity Assay (JNK) IC50.

Non-standard residues stand in square brackets, D forms with d. Residues, ends and D or L forms follow the SMILES beside them. No end group written: not given here. *: point of attachment. X1 = O=C(NCCCN*)c1ccc(-c2n[nH]c3ccccc23)cc1 Some results are limits rather than exact numbers.

T1 sequence (P45983 whole entry, species assumed): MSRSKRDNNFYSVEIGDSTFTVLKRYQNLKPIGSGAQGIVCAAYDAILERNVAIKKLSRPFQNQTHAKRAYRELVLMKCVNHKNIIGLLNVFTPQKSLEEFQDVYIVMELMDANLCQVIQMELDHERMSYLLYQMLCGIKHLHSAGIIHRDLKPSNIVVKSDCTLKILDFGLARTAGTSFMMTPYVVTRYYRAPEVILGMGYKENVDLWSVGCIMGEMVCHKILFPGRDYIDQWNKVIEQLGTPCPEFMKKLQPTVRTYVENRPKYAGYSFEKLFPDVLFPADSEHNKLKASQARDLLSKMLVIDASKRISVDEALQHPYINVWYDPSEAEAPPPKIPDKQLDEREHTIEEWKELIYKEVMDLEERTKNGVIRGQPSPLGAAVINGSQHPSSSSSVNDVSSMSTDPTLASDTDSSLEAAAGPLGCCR
p38α, sequence (Q16539 whole entry, the tested form may be a part): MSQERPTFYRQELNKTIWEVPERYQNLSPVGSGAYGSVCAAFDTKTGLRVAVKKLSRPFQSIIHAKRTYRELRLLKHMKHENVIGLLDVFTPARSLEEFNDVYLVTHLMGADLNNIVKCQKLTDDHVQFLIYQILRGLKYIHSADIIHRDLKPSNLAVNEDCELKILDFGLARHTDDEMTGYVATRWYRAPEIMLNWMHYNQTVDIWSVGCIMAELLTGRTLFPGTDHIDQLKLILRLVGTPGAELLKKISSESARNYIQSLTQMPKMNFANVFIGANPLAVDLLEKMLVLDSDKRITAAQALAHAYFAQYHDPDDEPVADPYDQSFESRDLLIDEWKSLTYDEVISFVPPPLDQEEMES

In the case of `NCCCNC(=O)c1ccc(-c2n[nH]c3ccc(NC(=O)Cc4cccs4)cc23)cc1`, in assay [1] (setting [4]), the IC50 (usually the concentration needed to halve the response being measured) is 1.9 µM.
Same read-out and setting: under `COC(=O)CCCNC(=O)c1ccc(-c2n[nH]c3ccccc23)cc1` stands 0.9 µM.
For the compound “Ac-tdqsrpvqpflnlttprrprpprrrqrrkkrg-OH [D-JNKI]”, the IC50 in assay [2] (setting [5]) is around 10 µM; in assay [1] (setting [6]) it was above 50 µM.
As for “Compound I (RPTTLNLGG; also: conjugate per reaction scheme A)”, in assay [2] (FIGS. 1A-1D, Delfia Assay), the “Inhibitor activity compared with peptide Ac-RPTTLNLGG-OH and product 8” value is given as “substantially more active”. For the same compound, in assay [1] (FIGS. 2A, 2B), the “ATP competition analysis” value is recorded as “competitive, at least to some extent”. In addition, the “ATF2 competition analysis” value in assay [1] (FIGS. 2C, 2D) is “competitive, at least to some extent”. Also, the “Selectivity relative to p38a” value in assay [3] (FIGS. 3A, 3B) is “good selectivity”.
In the case of RPKRPTTLNLF, the results for the IC50 in assay [2] (setting [7]) and in assay [1] (setting [8]) were 2.9 µM and 0.423 µM, respectively. In addition, in assay [3], the “Kinase Activity Assay (p38[…]) % at 50 μM” value worked out at 6% at 50 μM.
As to `CN1CCN(CCC(=O)NCCCCCNC(=O)c2ccc(-c3n[nH]c4ccccc34)cc2)CC1`, in assay [1] (setting [4]), the IC50 is 4.5 µM.
As for Ac-LNLGG-OH, the “Delfia Assay (Displacement of L-JIP1 peptide from JNK), ND class” value (from here on “Delfia Assay”) in assay [2] is reported as “ND^*) (In the Delfia Assay, no displacement up to 100 μM)”. In addition, the “Kinase Activity Assay (JNK), ND class” value in assay [1] was “ND^*) (in the Kinase Assay, no activity at 25 μM)”.
As to `CC(C)(C)OC(=O)NCCCNC(=O)c1ccc(-c2n[nH]c3ccc(NC(=O)Cc4cccs4)cc23)cc1`, the IC50 in assay [1] (setting [4]) worked out at 1.2 µM.
The same measure, in the same setting: next, `CC(C)(C)OC(=O)NCCCCCNC(=O)c1ccc(-c2n[nH]c3ccccc23)cc1`: 2.3 µM.
Turning to “GGLNLTTPRGGRRRQRRKKRG-NH2 (GG[dL][dN][dL][dT][dT][dP][dR]GG[dR][dR][dR][dQ][dR][dR][dK][dK][dR]G-NH2)”, the “Kinase Activity Assay (JNK) % inhibition” value in assay [1] (at 50 μM) worked out at 11%. Also, the “Kinase Activity Assay (p38[…]) % at 50 μM” value in assay [3] is reported as 0% at 50 μm.
`COC(=O)c1ccc(-c2n[nH]c3ccccc23)cc1`: the IC50 in assay [1] (setting [4]) came to 9.7 µM.
In the case of `CC(C)(C)OC(=O)NCCCNC(=O)c1ccc(-c2n[nH]c3ccccc23)cc1`, the “Delfia Assay” value in assay [2] is given as “ND^*) (In the Delfia Assay, no displacement up to 100 μM)”. Also, the IC50 in assay [1] (setting [8]) amounted to 3.5 µM.
As to Ac-RPTTLNL-OH [BI-77F10, Ac-RPTTLNL-OH], the results for the IC50 in assay [2] (setting [5]) and in assay [1] (setting [6]) were 4.5 µM and above 50 µM, respectively. For the same compound, the “Inhibition of JNK1 phosphorylation of ATF2” value in assay [1] (at concentrations up to 25 μM) is listed as “unable to inhibit”.
Take Ac-LNL-OH: the “Delfia Assay” value in assay [2] is “ND^*) (In the Delfia Assay, no displacement up to 100 μM)”. The “Kinase Activity Assay (JNK), ND class” value in assay [1] is given as “ND^*) (in the Kinase Assay, no activity at 25 μM)”.
With Ac-PTTLNLGG-OH, in assay [2], the “Delfia Assay” value is reported as “ND^*) (In the Delfia Assay, no displacement up to 100 μM)”. Besides, in assay [1], the “Kinase Activity Assay (JNK), ND class” value was “ND^*) (in the Kinase Assay, no activity at 25 μM)”.
For the compound Ac-RPTTLNLGG-OH, in assay [2] (setting [7]), the IC50 was found to be 18 µM. For the same compound, in assay [1] (at 50 μM, read-out: Kinase Activity Assay (JNK) % inhibition), the inhibition (as a rule, how much of the control response was suppressed) at 50 µM stood at 25%.
Take `CC(C)CC(NC(=O)C(CC(N)=O)NC(=O)C(CC(C)C)NC(=O)C(NC(=O)C(NC(=O)C1CCCN1C(=O)C(N)CCCNC(=N)N)C(C)O)C(C)O)C(=O)NCC(=O)NCC(=O)NCCCNC(=O)c1ccc(-c2n[nH]c3ccccc23)cc1` (centres unmarked) [BI-77B8] (H-RPTTLNLGG-X1; configuration not given here): in assay [2], the “Affinity in competition with pepJIP1 for JNK1 binding” value is “sub-nanomolar”. The IC50 in assay [2] (setting [5]) amounted to 0.9 µM; in assay [1] (setting [6]), 0.7 µM. Also, the “Affinity in inhibition of JNK1 kinase activity” value in assay [1] is “sub-nanomolar”. In addition, in assay [1] (direct comparison with pepJIP1), the “Improvement of kinase inhibition compared with pepJIP1” value is on record as “over 100 fold”.
For `NCCCNC(=O)c1ccc(-c2n[nH]c3ccccc23)cc1`, the “Delfia Assay” value in assay [2] is listed as “ND^*) (In the Delfia Assay, no displacement up to 100 μM)”.
Regarding “AcGRKKRRQRRRGGRPTTLNLGG (Ac-GRKKRRQRRRGGRPTTLNLGG)”, the “Kinase Activity Assay (JNK) % inhibition” value in assay [1] (at 50 μM) stood at 90%. In addition, the “Kinase Activity Assay (p38[…]) % at 50 μM” value in assay [3] is listed as 6% at 50 μm.

The record behind these values is patent US8431529B2, “Bi-dentate compounds as kinase inhibitors” (Sanford-Burnham Medical Research Institute, priority 2007, dated 2013).
